Source: ChEMBL document CHEMBL1201862, “PubChem BioAssay data set” (2004)
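Exposure lasted 48 hours, with cells grown in 96-well plates and compounds tested at five concentrations. GI50 is the concentration that inhibits growth by half.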 Calls of active or inactive are those of the source. Cut-off read from the data, not from the text of the source: active = GI50 up to about 1.1 µM and inactive = higher.

Tests used:
Experiment in all cases: growth of human tumour cells (NCI), 48 h
786-0 = test system: 786-0
A498 = test system: A498
A549 = test system: A549
ACHN = test system: ACHN
BT-549 = test system: BT-549
CAKI-1 = test system: CAKI-1
CCRF-CEM = test system: CCRF-CEM
COLO 205 = test system: COLO 205
DU-145 = test system: DU-145
EKVX = test system: EKVX
HCT-116 = test system: HCT-116
HCT-15 = test system: HCT-15
HL-60 = test system: HL-60
HOP-62 = test system: HOP-62
HOP-92 = test system: HOP-92
HT-29 = test system: HT-29
Hs-578T = test system: Hs-578T
IGROV-1 = test system: IGROV-1
K562 = test system: K562
KM12 = test system: KM12
LOX IMVI = test system: LOX IMVI
M14 = test system: M14
MCF7 = test system: MCF7
MDA-MB-231 = test system: MDA-MB-231
MDA-MB-435 = test system: MDA-MB-435
MDA-N = test system: MDA-N
MOLT-4 = test system: MOLT-4
Malme-3M = test system: Malme-3M
NCI-H226 = test system: NCI-H226
NCI-H23 = test system: NCI-H23
NCI-H460 = test system: NCI-H460
NCI-H522 = test system: NCI-H522
NCI/ADR-RES = test system: NCI/ADR-RES
OVCAR-3 = test system: OVCAR-3
OVCAR-4 = test system: OVCAR-4
OVCAR-5 = test system: OVCAR-5
OVCAR-8 = test system: OVCAR-8
PC-3 = test system: PC-3
RPMI-8226 = test system: RPMI-8226
RXF 393 = test system: RXF 393
SF-268 = test system: SF-268
SF-295 = test system: SF-295
SF-539 = test system: SF-539
SK-MEL-28 = test system: SK-MEL-28
SK-MEL-2 = test system: SK-MEL-2
SK-MEL-5 = test system: SK-MEL-5
SK-OV-3 = test system: SK-OV-3
SN12C = test system: SN12C
SNB-19 = test system: SNB-19
SNB-75 = test system: SNB-75
SR = test system: SR
SW-620 = test system: SW-620
T47D = test system: T47D
TK-10 = test system: TK-10
U-251 = test system: U-251
UACC-257 = test system: UACC-257
UACC-62 = test system: UACC-62

CC(C)(CCC(C)(C)c1ccccc1)c1ccccc1
GI50 (786-0): 15.7 µM (inactive) | GI50 (A498): 17.9 µM (inactive) | GI50 (A549): 28.8 µM (inactive) | GI50 (ACHN): 17.8 µM (inactive) | GI50 (BT-549): 20.2 µM (inactive) | GI50 (CAKI-1): 22.5 µM (inactive) | GI50 (CCRF-CEM): 18.4 µM (inactive) | GI50 (COLO 205): 18.1 µM (inactive) | GI50 (DU-145): 18.4 µM (inactive) | GI50 (EKVX): 17.7 µM (inactive) | GI50 (HCT-116): 14.7 µM (inactive) | GI50 (HCT-15): 20.9 µM | GI50 (HL-60): 16.3 µM (inactive) | GI50 (HOP-62): 17.4 µM (inactive) | GI50 (HOP-92): 19 µM (inactive) | GI50 (HT-29): 14.5 µM (inactive) | GI50 (Hs-578T): 22.1 µM (inactive) | GI50 (IGROV-1): 24.9 µM (inactive) | GI50 (K562): 21.8 µM (inactive) | GI50 (KM12): 15.3 µM (inactive) | GI50 (LOX IMVI): 17.5 µM (inactive) | GI50 (M14): 18.7 µM (inactive) | GI50 (MCF7): 17.9 µM (inactive) | GI50 (MDA-MB-231): 16.7 µM (inactive) | GI50 (MDA-MB-435): 21.9 µM (inactive) | GI50 (MDA-N): 22.2 µM (inactive) | GI50 (MOLT-4): 18.5 µM (inactive) | GI50 (Malme-3M): 16 µM (inactive) | GI50 (NCI-H226): 20.7 µM (inactive) | GI50 (NCI-H23): 18.2 µM (inactive) | GI50 (NCI-H460): 17.2 µM (inactive) | GI50 (NCI-H522): 15.7 µM (inactive) | GI50 (NCI/ADR-RES): 19.5 µM (inactive) | GI50 (OVCAR-3): 16.3 µM (inactive) | GI50 (OVCAR-4): 16.4 µM (inactive) | GI50 (OVCAR-5): 18.8 µM (inactive) | GI50 (OVCAR-8): 27 µM (inactive) | GI50 (PC-3): 30.8 µM (inactive) | GI50 (RPMI-8226): 15.1 µM (inactive) | GI50 (RXF 393): 12.9 µM (inactive) | GI50 (SF-268): 17.3 µM (inactive) | GI50 (SF-295): 17 µM (inactive) | GI50 (SF-539): 21.1 µM (inactive) | GI50 (SK-MEL-28): 20 µM (inactive) | GI50 (SK-MEL-2): 16.6 µM (inactive) | GI50 (SK-MEL-5): 14.4 µM (inactive) | GI50 (SK-OV-3): 27.1 µM (inactive) | GI50 (SN12C): 18.2 µM (inactive) | GI50 (SNB-19): 18.3 µM (inactive) | GI50 (SNB-75): 18 µM (inactive) | GI50 (SR): 21 µM (inactive) | GI50 (SW-620): 17.2 µM (inactive) | GI50 (T47D): 16.7 µM (inactive) | GI50 (TK-10): 21.6 µM (inactive) | GI50 (U-251): 16.7 µM (inactive) | GI50 (UACC-257): 14.3 µM (inactive) | GI50 (UACC-62): 19 µM (inactive)
